We go through 23 compounds from patent US9624228B2, “Inhibitors of ERK and methods of use” (KURA ONCOLOGY, INC., priority 2013, dated 2017).

The structures appear in SMILES notation. Where two headings read alike, the source gives them in different places.

The conditions of series [1]: control or reference compounds, 5 μM; cited from earlier work.
Another series deals with ERK2 enzyme (Homo sapiens (Human), UniProt P28482). Description: Inhibition assay of ERK (Z'-LYTE kinase assay, Ser/Thr 3 peptide substrate). It counts as biochemical. The following applies: 100 μM ATP.
Series [2] has as its system phospho-RSK1 (Thr359/Ser363) in A375 (Braf V600E) cells. Description: Phospho-p90 RSK ELISA using A375 (Braf V600E) cells. It counts as cell-based. The following applies: Homo sapiens, A-375, 2 hours compound treatment, read-out: Cellular Phospho-p90RSK IC50. The method, then:
In preparation for the assay, an ELISA plate with the pre-coated goat anti-mouse antibody (Thermo Scientific) was treated with a mouse anti-human RSK1 antibody (monoclonal, Invitrogen) at 1:800 dilution (150 ng/well) in PBS, and the plate was placed on a plate shaker at 4° C. overnight. […] After two hours of the compound treatment, the supernatant was removed from the cell plate, and cells were lysed in 100 μl per well of cell lysis buffer (Cell Signaling Technologies) containing phosphatase and protease inhibitors (Cell Signaling Technologies) on a plate shaker at 4° C. for 20 minutes. The ELISA plate was washed four times with ELISA wash buffer (Thermo Scientific) prior to addition of 100 μL cell lysate. The lysate was incubated on the ELISA plate with gentle shaking at room temperature for 2 hours. The contents of the wells were removed, and the ELISA plate was washed four times with wash buffer, and incubated with 100 μL per well of anti-phospho-RSK1 (Thr359/Ser363) rabbit monoclonal antibody (Millipore) at dilution of 1:1000 in StartingBlock buffer (Thermo Scientific) on a plate shaker at room temperature for 1 hour. The contents of the wells were removed, the ELISA plate was washed four times with wash buffer, and was incubated with 100 μL per well of goat anti-rabbit HRP (Thermo Scientific) at dilution of 1:3000 in StartingBlock buffer (Thermo Scientific) on a plate shaker at room temperature for 1 hour. The contents of the wells were removed, the ELISA plate was washed four times with wash buffer, and then incubated with 100 μL per well of TMB substrate solution (Thermo Scientific) on a plate shaker at room temperature for 20 minutes. Finally, 100 μL of TMB stop solution (Thermo Scientific) was added to each well and the absorbance is measured at 450 nm on a Tecan plate reader.

A further series relates to H358 (Kras, G12C) cells. The experiment in a line: Tumor cell line proliferation assay (CellTiter Glo), H358. The settings on record: Homo sapiens, NCI-H358, 96 h, read-out: H358 (Kras, G12C) Cell Proliferation IC50 (nM). In general terms: ATP-based viability assays read luminescence as a measure of living cells.
The subject of the next series is A375 cells. The experiment in a line: Tumor cell line proliferation assay (CellTiter Glo), A375. It counts as cell-based. The following applies: Homo sapiens, read-out: A375 (V599E) Cell Proliferation IC50.
A further series relates to WM-266-4 cells. The experiment in a line: Tumor cell line proliferation assay (CellTiter Glo), WM-266-4. The settings on record: Homo sapiens, WM 266-4, 96 h, read-out: WM-266-4 (V599D) Cell Proliferation IC50 (nM).
For series [3] the following is noted: PBS pH 7.4, 37° C., over the course of 24 hours; cited from earlier work.
Setting [4] is: In vitro, ERK2 enzyme 0.47 ng/μL.

Sequence of ERK2 enzyme (P28482 whole entry): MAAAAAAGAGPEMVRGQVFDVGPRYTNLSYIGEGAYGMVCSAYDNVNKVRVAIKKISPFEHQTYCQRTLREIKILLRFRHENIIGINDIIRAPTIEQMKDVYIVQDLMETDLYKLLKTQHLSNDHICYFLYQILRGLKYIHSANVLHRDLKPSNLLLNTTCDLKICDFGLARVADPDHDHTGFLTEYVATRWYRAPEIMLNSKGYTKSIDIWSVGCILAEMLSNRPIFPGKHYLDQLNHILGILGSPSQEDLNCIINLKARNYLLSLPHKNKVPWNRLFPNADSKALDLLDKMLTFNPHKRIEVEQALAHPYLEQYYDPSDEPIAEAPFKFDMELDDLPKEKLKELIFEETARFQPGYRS
Procedure for H358 (Kras, G12C) cells: (§1) The ability of one or more compounds of the invention to inhibit tumor cell line proliferation was determined according to standard procedures known in the art. For instance, an in vitro cellular proliferation assay was performed to measure the metabolic activity of live cells. […] The cells were incubated at 37° C. under 5% CO2 for two hours to allow for attachment to the plates. Compounds were first diluted in 1:3 dilutions in 100% DMSO at 250× the desired concentration, and then further diluted (1:50) in 10% DMEM growth medium. The diluted compounds were added to the cell plate (25 μL for a 5× dilution) and the cells are incubated with compounds (0.4% DMSO in 10% FBS DMEM) for 96 hours at 37° C. under 5% CO2. The cell control wells were added with vehicle only (0.4% DMSO in 10% FBS DMEM or in 10% FBS RPMI). Each concentration of the compounds was tested in duplicates. After 96 hours of the compound treatment, CellTiter Glo reagent (Promega) was added at a 1:5 dilution to each well of the cell plate and the cell plate was placed at room temperature for 30 minutes. The luminescence of the wells was determined using a Tecan plate reader.
Procedure for WM-266-4 cells: as §1

Consider `CCCOc1cc(N)ccc1C(=O)OCCN(CC)CC` [propoxycaine], for which the plasma stability entry in series [1] is recorded as “low plasma stability”.
Regarding `Cc1cc(-c2n[nH]c3cc4[nH]c(=O)c([C@H](C)c5ccc(F)cc5)cc4cc23)ccn1` [Compound 288], the IC50 at ERK2 enzyme (setting [4]) was below 50 nM; in series [2], below 250 nM.
For the compound `Cc1cc(-c2n[nH]c3cc4[nH]c(=O)c(C(C)c5ccc(F)cc5)cc4cc23)ccn1` (stereo not drawn) [Compound 197], the IC50 against ERK2 enzyme (In vitro ERK2 enzyme) is below 50 nM; with H358 (Kras, G12C) cells, below 250 nM; in series [2], below 250 nM; in the series on A375 cells (A-375, 96 h), below 250 nM.
Consider `CC(C)[N+](C)(CCOC(=O)C1c2ccccc2Oc2ccccc21)C(C)C` [propantheline], for which the plasma stability result in series [1] is given as “intermediate plasma stability”.
For the compound `Cc1cc(-c2n[nH]c3cc4[nH]c(=O)c(Cc5ccccc5)cc4cc23)ccn1` [Compound 6], the IC50 was 50 to 250 nM against ERK2 enzyme (In vitro ERK2 enzyme); 250 to 1000 nM with WM-266-4 cells; 250 to 1000 nM with A375 cells (A-375, 96 h).
Take `Cc1cc(-c2n[nH]c3cc4c(cc23)CC([C@H](C)c2ccccc2)C(=O)N4)ccn1` (stereo partly drawn) [Compound 371]: the IC50 lay within 50 to 250 nM against ERK2 enzyme (setting [4]) and 250 to 1000 nM in series [2].
For `O=C(O)CCCc1ccc(N(CCCl)CCCl)cc1` [chlorambucil], the chemical stability result in series [3] was “largely hydrolyzed”.
In the case of `O=C1Nc2cc3[nH]nc(NC4CCOCC4)c3cc2CN1[C@@H]1CN(CC(F)(F)F)C[C@H]1c1ccccc1` [Compound 361], the IC50 was 50 to 250 nM against ERK2 enzyme (setting [4]) and below 250 nM in series [2].
Turning to `O=C1Nc2cc3[nH]nc(-c4ccnnc4)c3cc2CN1Cc1cccc(Cl)c1` [Compound 66], the IC50 against ERK2 enzyme (In vitro ERK2 enzyme) was below 50 nM; in series [2], 250 to 1000 nM.
For `Cc1cc(-c2n[nH]c3cc4[nH]c(=O)c(C(C)c5cccc(Cl)c5)cc4cc23)ccn1` (stereo not drawn) [Compound 181], the IC50 against ERK2 enzyme (In vitro ERK2 enzyme) is 50 to 250 nM; in the series with H358 (Kras, G12C) cells, below 250 nM; in series [2], below 250 nM; in the series with A375 cells (A-375, 96 hours), below 250 nM.
On to `Cc1cc(-c2n[nH]c3cc4c(cc23)CN([C@@H]2CCCN(C(=O)c3cccc(Cl)c3)C2)C(=O)N4)ccn1` [Compound 152], for which the IC50 against ERK2 enzyme (In vitro ERK2 enzyme) was below 50 nM; in series [2], 250 to 1000 nM.
`COc1ccc(-c2n[nH]c3cc4c(cc23)CN([C@H]2CCCN(Cc3ccccc3)C2)C(=O)N4)cn1` [Compound 368]: the IC50 against ERK2 enzyme (setting [4]) lay within 50 to 250 nM.
On to `CCN1CC[C@@H](N2Cc3cc4c(-c5ccnc(C)c5)n[nH]c4cc3NC2=O)C1` [Compound 256], for which the IC50 against ERK2 enzyme (setting [4]) was below 50 nM.
The same measure, in the same setting: in the case of `Cc1cc(-c2n[nH]c3cc4[nH]c(=O)c([C@@H](C)c5ccc(F)cc5)cc4cc23)ccn1` [Compound 287] it was 50 to 250 nM; in that of `Cc1cc(-c2n[nH]c3cc4c(cc23)CN([C@@H]2CN(C)C[C@H]2c2ccccc2)C(=O)N4)ccn1` (racemic) [Compound 241], below 50 nM.
Turning to `Cc1cc(-c2n[nH]c3cc4[nH]c(=O)c(C(C)c5ccccc5)cc4cc23)ccn1` (stereo not drawn) [Compound 22], the IC50 against ERK2 enzyme (In vitro ERK2 enzyme) was below 50 nM.
`Cc1cc(-c2n[nH]c3cc4c(cc23)CN(CCNCc2cccc(Cl)c2)C(=O)N4)ccn1` [Compound 176]: the IC50 on ERK2 enzyme (In vitro ERK2 enzyme) was below 50 nM.
Still for that read-out and setting: next, `Cc1cc(-c2n[nH]c3cc4[nH]c(=O)n(Cc5ccc(F)c(Cl)c5)c(=O)c4cc23)ccn1` [Compound 15]: 50 to 250 nM.
On ERK2 enzyme (setting [4]), `Cc1cc(-c2n[nH]c3cc4c(cc23)CN([C@@H]2CN(Cc3ccccc3)CC(F)(F)C2)C(=O)N4)ccn1` [Compound 263] had an IC50 of 250 to 1000 nM.
On ERK2 enzyme (In vitro ERK2 enzyme), `Cc1cc(-c2n[nH]c3cc4c(cc23)CN([C@@H]2CCCN(CC3(C)CC3)C2)C(=O)N4)ccn1` [Compound 182] came in with an IC50 of 50 to 250 nM.
The same measure, in the same setting: in the case of `COc1ncccc1CN1CCC[C@@H](N2Cc3cc4c(-c5ccnc(C)c5)n[nH]c4cc3NC2=O)C1` [Compound 150] it was below 50 nM.
As to `Cc1cc(-c2n[nH]c3cc4c(cc23)CN(C2CCCC2)C(=O)N4)ccn1` [Compound 205], at ERK2 enzyme (setting [4]), the IC50 was below 50 nM.
Same read-out and setting: in the case of `Cc1cc(-c2n[nH]c3cc4c(cc23)CN([C@@H]2CCN(C(C)C)C2)C(=O)N4)ccn1` [Compound 268] it was 50 to 250 nM.
